Experiments:
[1] = tested on: Hepatitis B virus; assay: Antiviral activity against Hepatitis B virus infected in human HepG2.2.15 cells assessed as inhibition of HBV DNA replication after 72 hrs by PCR analysis; format: functional, organism-based; conditions: HepG2 2.2.15, 72 h
[2] = tested on: Hepatitis B virus; assay: Antiviral activity against Hepatitis B virus infected in human HepG2.2.15 cells assessed as inhibition of HBeAg secretion after 12 days by ELISA; format: functional, organism-based; conditions: HepG2 2.2.15, 288 h
[3] = Cytotoxicity against human HepG2(2.2.15) cells after 12 days by MTT assay; format: cell-based
[4] = tested on: Hepatitis B virus; assay: Antiviral activity against Hepatitis B virus infected in human HepG2.2.15 cells assessed as inhibition of HBsAg secretion after 12 days by ELISA; format: functional, organism-based; conditions: HepG2 2.2.15, 288 h
[5] = Selectivity index, ratio of CC50 for human HepG2(2.2.15) cells to IC50 for Hepatitis B virus infected human HepG2.2.15 cells by DNA replication assay; format: functional
[6] = Selectivity index, ratio of CC50 for human HepG2(2.2.15) cells to IC50 for Hepatitis B virus infected in human HepG2.2.15 cells assessed as HBeAg secretion inhibition assay; format: functional
[7] = Selectivity index, ratio of CC50 for human HepG2(2.2.15) cells to IC50 for Hepatitis B virus infected in human HepG2.2.15 cells by HBsAg secretion inhibition assay; format: functional

| SMILES | IC50 [1] [µM] | IC50 [2] [µM] | CC50 at 288 h [3] [µM] | IC50 [4] [µM] | Ratio CC50/IC50 [5] | Ratio CC50/IC50 [6] | Ratio CC50/IC50 [7] |
| --- | --- | --- | --- | --- | --- | --- | --- |
| C=CCc1ccc(O[C@@H]2O[C@H](CO)[C@@H](O)[C@H](O)[C@H]2O)c(-c2cc(C[C@@H](O)CO)ccc2O)c1 | > 1000 | > 1000 | 190 | > 1000 |  |  |  |
| COc1cc(C2c3cc(O)c(OC)cc3C[C@@H](CO)[C@@H]2CO[C@@H]2OC[C@@H](O)[C@H](O)[C@H]2O)ccc1O (stereo partly specified) | 17.7 | 26.7 | 210 | 6.98 | 11.9 | 7.87 | 30.15 |
| C=CCc1ccc2c(c1)-c1cc([C@@H](O)[C@H](C)O)ccc1Oc1ccc(CC=C)cc1-c1cc([C@@H](O)[C@H](C)O)ccc1O2 [(7'R,8'S,7'R,8'S)-ERYTHRO-STREBLUSLIGNANOL G] | 9.02 | 3.24 | 118 | 1.58 | 13.12 | 36.52 | 74.9 |
| COc1cc([C@H]2Oc3c(OC)cc(CCCO)cc3[C@@H]2CO)ccc1O [DIHYDRODEHYDRODICONIFERY ALCOHOL] | > 1000 | > 1000 | 180 | > 1000 |  |  |  |
| COc1cc([C@H]2Oc3c(OC)cc(/C=C/C(=O)O)cc3[C@@H]2CO)ccc1O [GLYCOSMISIC ACID] | > 1000 | > 1000 | 200 | > 1000 |  |  |  |
| COc1cc([C@H]2c3cc(O)c(OC)cc3C[C@@H](CO)[C@@H]2CO)ccc1O [ISOLARICIRESINOL] | 12.7 | 14.7 | 129 | 3.67 | 10.18 | 8.82 | 35.28 |
| C=CCc1ccc(Oc2ccc(C=O)cc2O)cc1 [ISOMAGNALDEHYDE] | > 1000 | 86.7 | 186 | 162 |  | 2.14 | 1.14 |
| C=CCc1ccc(Oc2cc(CC=C)ccc2O)cc1 [ISOMAGNOLOL] | 12.9 | 8.83 | 196 | 10.3 | 15.13 | 22.14 | 18.91 |
| C=CCc1ccc(Oc2ccc(/C=C/C=O)cc2)c(O)c1 [ISOSTREBLUSLIGNANALDEHYDE] | 61.2 | 10.5 | 200 | 12.2 | 3.27 | 19.11 | 16.46 |
| Nc1ccn([C@@H]2CS[C@H](CO)O2)c(=O)n1 [LAMIVUDINE] | 99.5 | 176 | 391 | 141 | 3.93 | 2.22 | 2.77 |
| C=CCc1ccc(O)c(-c2cc(C=O)ccc2O)c1 [MAGNALDEHYDE] | > 1000 | 41.4 | 200 | 109 |  | 4.83 | 1.84 |
| C=CCc1ccc(O)c(-c2cc(C[C@@H](O)CO)ccc2O)c1 [MAGNOLIGNAN A] | > 1000 | > 1000 | 176 | > 1000 |  |  |  |
| C=CCc1ccc(O)c(-c2cc(CC=C)ccc2O)c1 [MAGNOLOL] | 8.67 | 3.76 | 63.7 | 2.03 | 7.34 | 16.94 | 31.37 |
| C=CCc1ccc(Oc2cc(CC=C)cc(O)c2O)cc1 [OBOVATOL] |  |  | 180 |  |  |  |  |
| C=CCc1ccc(O)c(-c2cc(O)ccc2O)c1 [RANDAIOL] | > 1000 | 30.2 | 201 | 162 |  | 6.63 | 1.23 |
| C=CCc1ccc(O)c(-c2cc([C@H]3O[C@H](c4ccc(O)c(-c5cc(CC=C)ccc5O)c4)[C@@H](C)O[C@@H]3C)ccc2O)c1 [STREBLUSLIGNANOL F] | 11.6 | 43.2 | 137 | 56.9 | 11.87 | 3.17 | 2.41 |
| C=CCc1ccc(O)c(-c2cc([C@@H](O)[C@@H](C)O)ccc2O)c1 [STREBLUSLIGNANOL] | > 1000 | 147 | 200 | > 1000 |  | 1.36 |  |

Reference: ChEMBL document CHEMBL2346656, “Anti-hepatitis B virus lignans from the root of Streblus asper” (Bioorg Med Chem Lett, 2013)
